Where two headings read alike, the source gives them in different places.
Test system: HCV replicon
Test: HCV replicon replication assay (NPT ELISA) in Huh-7 replicon-containing cells
Assay type: cell-based
Settings: Hepatitis C virus
Protocol: Compounds claimed herein are tested for the ability to inhibit viral replication of the Hepatitis C replicon in cultured cells in which the HCV replicon construct has been incorporated. The HCV replicon system was described by Bartenschlager, et. al (Science, 285, pp. 110-113 (1999)). The replicon system is predictive of in vivo anti-HCV activity; compounds that are active in humans uniformly evidence activity in the replicon assay.
In this assay HCV replicon containing cells are treated with different concentrations of the test compound to ascertain the ability of the test compound to suppress replication of the HCV replicon. As a positive control, HCV replicon-containing cells are treated with different concentrations of interferon alpha, a known inhibitor of HCV replication. The replicon assay system includes Neomycin Phosphotransferase (NPT) as a component of the replicon itself in order to detect the transcription of replicon gene products in the host cell. Cells in which the HCV replicon is actively replicating have high levels of NPT; the level of NPT is proportional to HCV replication. […] The NPT level of each sample is measured using a captured ELISA.
A protocol for testing compounds for the ability to inhibit viral replication of the Hepatitis C replicon cultured cells in which the replicon construct has been incorporated, follows.
The HCV replicon contains, 5′-3′, the HCV-IRES, the neomycin phosphotransferase (neo) gene, the IRES of encephalomyocarditis virus, which directs translation of HCV sequences NS3 to NS5B, and the 3′-NTR. The sequence of the HCV replicon has been deposited in GenBank (Accession no. AJ242652).
The replicon is transfected into Huh-7 cells using standard methods such as electroporation.
The equipment and materials include, but are not limited to, Huh-7 HCV replicon-containing cells, maintenance media (DMEM (Dulbecco's modified Eagle media) supplemented with 10% FBS, L-glutamine, non-essential amino acids, penicillin (100 units/ml), streptomycin (100 micrograms/ml), and 500 micrograms/ml of Geneticin (G418), screening media (DMEM supplemented with 10% FBS, L-glutamine, non-essential amino acids, penicillin (100 units/ml) and streptomycin (100 micrograms/ml)), 96 well tissue culture plates (flat bottom), 96 well plates (U bottom for drug dilution), Interferon alpha for positive control, fixation reagent (such as methanol: acetone), primary antibody (rabbit anti-NPTII), secondary antibody: Eu-N1 l, and enhancement solution.
HCV replicon-containing cells support high levels of viral RNA replicon replication when their density is suitable. Over-confluency causes decreased viral RNA replication. Therefore, cells must be kept growing in log phase in the presence of 500 micrograms/ml of G418. Generally, cells should be passed twice a week at 1: 4-6 dilution. Cell maintenance is conducted as follows:
HCV replicon-containing cells are examined under a microscope to ensure that cells growing well. Cells are rinsed once with PBS and 2 ml trypsin is added. The cell/trypsin mixture is incubated at 37° C. in a CO2 incubator for 3-5 minutes. After incubation 10 ml of complete media is added to stop the trypsinization reaction. Cells are blown gently, put into a 15 ml tube, and spun at 1200 rpm for 4 minutes. The trypsin/medium solution is removed. Medium (5 ml) is added and the cells are mixed carefully. The cells are counted.
The cells are then seeded onto 96-well plates at a density of 6000-7500 cells/100 microliters/well (6-7.5×10^5 cells/10 ml/plate). The plates are then incubated at 37° C. in a 5% CO2 incubator.
Cells are examined under a microscope approximated 24 hours after seeding and prior to adding drugs. If counting and dilution were performed correctly, cells are 60-70% confluent and nearly all cells should attach and spread evenly in the well.
HCV replicon-containing cells are rinsed with once PBS once; 2 mls of trypsin are then added. Cells are incubated at 37° C. in a 5% CO2 incubator for 3-5 minutes. […]

[1] = 72 h, HCV replicon in Huh-7 cells, three days incubation, read-out: EC50

Structure (SMILES)	EC50 [1]	EC50 (Huh-7)
C=C[C@@H]1CC1(NC(=O)[C@@H]1C[C@@H](Oc2nc(-c3ccccn3)cc3c(Cl)c(OC)ccc23)CN1C(=O)[C@@H](CC(=O)N1CCC(C(F)(F)F)CC1)C(C)(C)C)C(=O)NS(=O)(=O)C1CC1 (mixture of isomers) [Compound 245, (2S,4R)-1-((S)-2-tert-butyl-4-oxo-4-(4-(trifluoro-methyl)piperidin-1-yl)butanoyl)-4-(5-chloro-6-methoxy-3-(pyridin-2-yl)isoquinolin-1-yloxy)-N-((S)-1-(cyclopropyl-sulfonylcarbamoyl)-2-vinylcyclo-propyl)pyrrolidine-2-carboxamide]	< 1000 nM	
C=C[C@@H]1CC1(NC(=O)[C@@H]1C[C@@H](Oc2cc(-c3ccccn3)nc3c(C)c(OC)ccc23)CN1C(=O)[C@@H](CC(=O)N1CCC(C(F)(F)F)CC1)C(C)(C)C)C(=O)NS(=O)(=O)C1CC1 (mixture of isomers) [Compound 249, (2S,4R)-1-((S)-2-tert-butyl-4-oxo-4-(4-(trifluoro-methyl)piperidin-1-yl)butanoyl)-N-((S)-1-(cyclopropyl-sulfonylcarbamoyl)-2-vinylcyclopropyl)-4-(7-methoxy-8-methyl-2-(pyridin-2-yl)quinolin-4-yloxy)pyrrolidine-2-carboxamide]	< 1000 nM	
C=C[C@@H]1CC1(NC(=O)[C@@H]1C[C@@H](Oc2cc(-c3nc(C(C)C)cs3)nc3c(C)c(OC)ccc23)CN1C(=O)[C@@H](CC(=O)N1CCC(C(F)(F)F)CC1)C(C)(C)C)C(=O)NS(=O)(=O)C1CC1 (stereo in doubt) [Compound 250, (2S,4R)-1-((S)-2-tert-butyl-4-oxo-4-(4-(trifluoro-methyl)piperidin-1-yl)butanoyl)-N-((S)-1-(cyclopropyl-sulfonylcarbamoyl)-2-vinylcyclopropyl)-4-(2-(4-isopropylthiazol-2-yl)-7-methoxy-8-methylquinolin-4-yloxy)pyrrolidine-2-carboxamide]	< 1000 nM	
C=C[C@@H]1CC1(NC(=O)[C@@H]1C[C@@H](Oc2cc(-c3cccnc3)nc3c(C)c(OC)ccc23)CN1C(=O)[C@@H](CC(=O)N1CCC(C(F)(F)F)CC1)C(C)(C)C)C(=O)NS(=O)(=O)C1CC1 (stereo in doubt) [Compound 253, (2S,4R)-1-((S)-2-tert-butyl-4-oxo-4-(4-(trifluoro-methyl)piperidin-1-yl)butanoyl)-N-((S)-1-(cyclopropyl-sulfonylcarbamoyl)-2-vinylcyclopropyl)-4-(7-methoxy-8-methyl-2-(pyridin-3-yl)quinolin-4-yloxy)pyrrolidine-2-carboxamide]	< 1000 nM	
C=CC1CC1(NC(=O)[C@@H]1C[C@@H](Oc2cc(-c3ccccc3)nc3cc(OC)ccc23)CN1C(=O)[C@@H](CC(=O)O)C(C)(C)C)C(=O)OCC (stereo partly drawn) [Compound 11, (3S)-3-((2S,4R)-2-(1-(ethoxycarbonyl)-2-vinylcyclopropylcarbamoyl)-4-(7-methoxy-2-phenylquinolin-4-yloxy)pyrrolidine-1-carbonyl)-4,4-dimethylpentanoic acid]		≤ 10000 nM
C=C[C@@H]1C[C@@]1(NC(=O)[C@@H]1C[C@@H](Oc2cc(-c3ccccc3)nc3cc(OC)ccc23)CN1C(=O)[C@@H](CC(=O)N1CCCCC1)C(C)(C)C)C(=O)NS(=O)(=O)C1CC1 [Compound 38, (2S,4R)-1-((S)-2-tert-butyl-4-oxo-4-(piperidin-1-yl)butanoyl)-N-((1S,2S)-1-(cyclopropylsulfonyl-carbamoyl)-2-vinylcyclopropyl)-4-(7-methoxy-2-phenylquinolin-4-yloxy)pyrrolidine-2-carboxamide]	< 1000 nM	≤ 10000 nM
C=CC1C[C@@]1(NC(=O)[C@@H]1C[C@@H](Oc2cc(-c3ccccc3)nc3cc(OC)ccc23)CN1C(=O)C[C@H](C(=O)N1CCCCC1)C(C)(C)C)C(=O)NS(=O)(=O)C1CC1 (stereo partly drawn) [Compound 39, (2S,4R)-N-(1-(cyclo-propylsulfonyl-carbamoyl)-2-vinylcyclopropyl)-1-((S)-4,4-dimethyl-3-(piperidine-1-carbonyl)pentano-yl)-4-(7-methoxy-2-phenylquinolin-4-yloxy)pyrrolidine-2-carboxamide]	< 1000 nM	≤ 10000 nM
C=CC1CC1(NC(=O)[C@@H]1C[C@@H](Oc2cc(-c3ccccc3)nc3cc(OC)ccc23)CN1C(=O)[C@@H](CC(=O)N1CCc2ccccc2C1)C(C)(C)C)C(=O)NS(=O)(=O)C1CC1 (stereo partly drawn) [Compound 40, (2S,4R)-1-((S)-2-tert-butyl-4-(3,4-dihydro-isoquinolin-2(1H)-yl)-4-oxobutanoyl)-N-(1-(cyclopropyl-sulfonyl-carbamoyl)-2-vinylcyclopropyl)-4-(7-methoxy-2-phenylquinolin-4-yloxy)pyrrolidine-2-carboxamide]	< 1000 nM	≤ 10000 nM
C=CC1CC1(NC(=O)[C@@H]1C[C@@H](Oc2cc(-c3ccccc3)nc3cc(OC)ccc23)CN1C(=O)[C@@H](CC(=O)N1CCCc2ccccc21)C(C)(C)C)C(=O)NS(=O)(=O)C1CC1 (stereo partly drawn) [Compound 41, (2S,4R)-1-((S)-2-tert-butyl-4-(3,4-dihydroquinolin-1(2H)-yl)-4-oxobutanoyl)-N-(1-(cyclopropyl-sulfonyl-carbamoyl)-2-vinylcyclopropyl)-4-(7-methoxy-2-phenylquinolin-4-yloxy)pyrrolidine-2-carboxamide]	< 1000 nM	
C=CC1CC1(NC(=O)[C@@H]1C[C@@H](Oc2cc(-c3ccccc3)nc3cc(OC)ccc23)CN1C(=O)[C@@H](CC(=O)N1CCCCC1C(N)=O)C(C)(C)C)C(=O)NS(=O)(=O)C1CC1 (stereo partly drawn) [Compound 42, 1-((3S)-3-((2S,4R)-2-(1-(cyclopropyl-sulfonyl-carbamoyl)-2-vinylcyclopropyl-carbamoyl)-4-(7-methoxy-2-phenylquinolin-4-yloxy)pyrrolidine-1-carbonyl)-4,4-dimethylpentano-yl)piperidine-2-carboxamide]	< 1000 nM	
C=CC1CC1(NC(=O)[C@@H]1C[C@@H](Oc2cc(-c3ccccc3)nc3cc(OC)ccc23)CN1C(=O)[C@@H](CC(=O)N1CCC(CCC)CC1)C(C)(C)C)C(=O)NS(=O)(=O)C1CC1 (stereo partly drawn) [Compound 43, (2S,4R)-1-((S)-2-tert-butyl-4-oxo-4-(4-propylpiperidin-1-yl)butanoyl)-N-(1-(cyclopropyl-sulfonyl-carbamoyl)-2-vinylcyclopropyl)-4-(7-methoxy-2-phenylquinolin-4-yloxy)pyrrolidine-2-carboxamide]	1000 to 10000 nM	
C=CC1CC1(NC(=O)[C@@H]1C[C@@H](Oc2cc(-c3ccccc3)nc3cc(OC)ccc23)CN1C(=O)[C@@H](CC(=O)N1CCCC(C)C1)C(C)(C)C)C(=O)NS(=O)(=O)C1CC1 (stereo partly drawn) [Compound 44, (2S,4R)-1-((2S)-2-tert-butyl-4-(3-methylpiperidin-1-yl)-4-oxobutanoyl)-N-(1-(cyclopropyl-sulfonyl-carbamoyl)-2-vinylcyclopropyl)-4-(7-methoxy-2-phenylquinolin-4-yloxy)pyrrolidine-2-carboxamide]	1000 to 10000 nM	
C=CC1CC1(NC(=O)[C@@H]1C[C@@H](Oc2cc(-c3ccccc3)nc3cc(OC)ccc23)CN1C(=O)[C@@H](CC(=O)N1CCCC(C(N)=O)C1)C(C)(C)C)C(=O)NS(=O)(=O)C1CC1 (stereo partly drawn) [Compound 45, 1-((3S)-3-((2S,4R)-2-(1-(cyclopropyl-sulfonylcarbamoyl)-2-vinylcyclopropyl-carbamoyl)-4-(7-methoxy-2-phenylquinolin-4-yloxy)pyrrolidine-1-carbonyl)-4,4-dimethylpentano-yl)piperidine-3-carboxamide]	1000 to 10000 nM	
C=CC1CC1(NC(=O)[C@@H]1C[C@@H](Oc2cc(-c3ccccc3)nc3cc(OC)ccc23)CN1C(=O)C[C@H](C(=O)NC1CCCC1)C(C)(C)C)C(=O)NS(=O)(=O)C1CC1 (some centres unmarked) [Compound 46]	< 1000 nM	

From patent publication US9133115B2 (ACHILLION PHARMACEUTICALS, INC., priority 2008, dated 2015)
